The IC50 is the concentration that gives 50% inhibition.

Structures can show the parent of a compound that is named as a salt. Where two headings read alike, the source gives them in different places.

In test [1] the test system is human PRP (platelet rich plasma). Put plainly: Inhibitory activity against platelet aggregation (ADP-induced, human PRP). The class given is cell-based. The note with it: aggregation inducer ADP 5 µM, preincubated 2 min. The method, then:
The inhibitory activity of the compound according to the present invention against platelet aggregation was examined with human PRP (platelet rich plasma).
Nine volumes of a blood sample was taken out of the vein of a normal human being with a syringe in which one volume of a 3.8% sodium citrate solution was charged. The blood sample was centrifuged at 170 x g at room temperature for 10 min. The supernatant thus obtained was isolated as PRP. The residual blood sample that PRP had been taken out was centrifuged at 2,700 x g for 15 min. The supernatant was then taken as platelet poor plasma (PPP).
A platelet aggregation test was carried out with an aggligometer (PAM-8C, manufactured by MEBANICKS Co. Ltd.). Compounds under test were dissolved in physiological saline, 0.1 N hydrochloric acid-physiological saline, or 1 N aqueous sodium hydroxide solution-physiological saline. The compound under test and PRP were preincubated for 2 min. An aggregation inducer ADP (CHRONO-PAR REAGENTS 384 ADP, CHRONO-LOG Corp.) was used after dilution with physiological saline to a final concentration of 5 µM.
The anti-platelet aggregation activity was determined as an inhibition rate to platelet aggregation effect of ADP in the absence of a compound under tent as follows. Anti-platelet aggregation activity (%) = [1 - (aggregation rate by ADP in the presence of test compound/aggregation rate by ADP in the absence of test compound)] x 100 [formula]

For test [2], the target named is T1, human platelet GPIIb/IIIa (Homo sapiens, UniProt P05106+P08514).
T1 construct: the adsorbed GPIIb/IIIa was eluted with buffer A containing 2 mM GRGDSPK peptide; from tissue
Put plainly: Inhibitory activity against binding between platelet GPIIb/IIIa and fibrinogen (solid phase receptor binding). From the text: The inhibitory activity of the compounds of the present invention against binding between platelet GPIIb/IIIa and fibrinogen was examined by means of a human platelet GPIIb/IIIa solid phase receptor binding experiment system using a biotinylated human fibrinogen as a ligand.
At the outset, human platelet GPIIb/IIIa was purified according to a method established by Pytela, R et al. (Science, 231, 1559-1561 (1986)). Specifically, platelets collected from a normal human being was washed with TBS (0.15 M NaCl/50 mM Tris-HCl buffer (pH 7.5)) containing 0.2% (w/v) glucose. To the resultant pellet was added an equal amount of TBS containing 50 mM octylglucoside and 2 mM PMSF, followed by solubilization of membrane protein at 4°C for 20 min. The extract was centrifuged under conditions of 4°C, 3500 x g, and 20 min. To the supernatant were added 1 mM CaCl2 and 1 mM MgCl2. Thus, a sample for affinity chromatography was prepared. The solubilized protein solution was adsorbed on a GRGDSPK-Sepharose column which had been previously equilibrated with TBS containing 50 mM octylglucoside, 1 mM CaCl2, and 1 mM MgCl2 (buffer A). After washing with buffer A, the adsorbed GPIIb/IIIa was eluted with buffer A containing 2 mM GRGDSPK peptide.
The GRGDSPK-Sepharose was prepared by coupling of GRGDSPK peptide with CNBr-activated Sepharose 4B (manufactured by Pharmacia) according to the instruction manual of the manufacturer.
Next, a human platelet GPIIb/IIIa solid phase receptor binding test was carried out according to a method established by Mori et al. (Nippon Kessen Shiketsu Gakkaishi, 2(4), 323-329 (1991)).
Purified human platelet GPIIb/IIIa was adjusted to 2 µg/ml, and an 50 µl aliquot was adsorbed on each well of a 96 well microtiter plate at 4°C overnight. After washing with TBS containing 1 mM CaCl2 and 1 mM MgCl2, 100 µl of 1% bovine serum albumin was added to each of the wells, followed by blocking at 4°C overnight. The microtiter plate was then washed with TBS containing 0.01% Tween 20 (TBS-Tween 20), and 50 µl of biotinylated fibrinogen, which had been adjusted to 1 µg/ml, was added to each of the wells. Simultaneously, 50 µl of the test compound, which had been adjusted to appropriate concentrations, was added thereto, followed by a reaction at room temperature for 4 hr. After washing with TBS-Tween 20, 50 µl of peroxidase-labelled avidin, which had been diluted 4000 times with TBS, was added to each of the wells, followed by a reaction for 20 min. After washing with TBS-Tween 20, 50 µl of a solution of 1 mg/ml ABTS (2,2'-azino-bis(3-ethylbenzthiazoline-6-sulfonic acid) dissolved in a peroxidase substrate buffer, which had been diluted 10 times, was added to each of the wells, and a reaction was allowed to proceed for 5 min. Next, 50 µl of a 0.1 M citric acid buffer (pH 4.3) containing 0.05% NaN3 was added to each of the wells to terminate the reaction, and the absorbance was measured at 415 nm.
The binding inhibition was calculated by the following equation.
Binding inhibition (%) = [1 - (absorbance with test compound/absorbance without test compound)] x 100

Another test has as its target T2, human TXA2 synthetase (Homo sapiens, UniProt P24557).
T2 construct: purchased BIOMOL
T2 sequence (P24557 1-533): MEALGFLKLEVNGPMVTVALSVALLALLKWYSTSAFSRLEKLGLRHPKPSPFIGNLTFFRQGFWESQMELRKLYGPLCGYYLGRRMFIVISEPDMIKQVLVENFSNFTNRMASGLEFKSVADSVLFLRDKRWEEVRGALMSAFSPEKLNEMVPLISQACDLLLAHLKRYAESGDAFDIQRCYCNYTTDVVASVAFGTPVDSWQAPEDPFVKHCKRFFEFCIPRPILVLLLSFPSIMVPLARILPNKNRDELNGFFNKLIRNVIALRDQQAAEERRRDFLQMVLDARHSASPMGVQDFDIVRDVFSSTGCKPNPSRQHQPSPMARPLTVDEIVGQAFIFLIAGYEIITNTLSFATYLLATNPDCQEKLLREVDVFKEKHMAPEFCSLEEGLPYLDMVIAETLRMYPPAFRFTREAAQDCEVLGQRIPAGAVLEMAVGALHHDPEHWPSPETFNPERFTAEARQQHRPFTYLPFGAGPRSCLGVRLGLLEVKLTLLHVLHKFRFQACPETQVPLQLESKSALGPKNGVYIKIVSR
Put plainly: Inhibitory activity against thromboxane A2 (TXA2) synthetase. It is filed as biochemical. As to the method: The inhibitory activity of the compound of the present invention against TXA2 synthetase was assayed according to a method established by Ri et al. (Nihon Yakuri Gakkaishi, 106, 31 (1995)). A specimen solution (10 µl) was added to 100 µl of a 50 mM Tris-HCl buffer (containing 0.1 M NaCl, pH 7.5, 25°C) containing 10 µg of human TXA2 synthetase (BIOMOL), and incubation was then carried out at 25°C for 3 min. Next, 2 µl of 50 µg/ml PGH2 solution (Cayman Chemical) was added thereto to initiate an enzyme reaction, followed by the reaction at 25°C for 3 min. An aqueous ferrous chloride solution (25 mM, 10 µl) was added thereto to terminate the reaction. The reaction system was allowed to stand at room temperature for 15 min and then centrifuged under conditions of 4°C, 3000 x g, and 10 min. The supernatant was obtained as a sample for quantitative determination of TXB2. The amount of TXB2 was determined by means of Thromboxane B2 Enzyme Immunoassay Kit (Cayman Chemical). After a color reaction, the absorbance was measured at 415 nm with a microplate reader (MTP-32, manufactured by Corona Electric Co., Ltd.). The inhibition against TXA2 synthetase activity was calculated by the following equation, and 50% inhibition concentration was determined by regression straight line. Inhibition (%) = (1 - B/A) x 100 [formula] wherein • A represents the amount of TXB2 produced without the test compound; and • B represents the amount of TXB2 produced with the test compound.

The mark [3] stands for this setting: purified human platelet GPIIb/IIIa, biotinylated human fibrinogen as ligand, read-out: IC50.
The mark [4] stands for this setting: human TXA2 synthetase, PGH2 substrate, 25°C, TXB2 determined by enzyme immunoassay, read-out: IC50.

T1 sequence (P08514 32-887 limits assumed): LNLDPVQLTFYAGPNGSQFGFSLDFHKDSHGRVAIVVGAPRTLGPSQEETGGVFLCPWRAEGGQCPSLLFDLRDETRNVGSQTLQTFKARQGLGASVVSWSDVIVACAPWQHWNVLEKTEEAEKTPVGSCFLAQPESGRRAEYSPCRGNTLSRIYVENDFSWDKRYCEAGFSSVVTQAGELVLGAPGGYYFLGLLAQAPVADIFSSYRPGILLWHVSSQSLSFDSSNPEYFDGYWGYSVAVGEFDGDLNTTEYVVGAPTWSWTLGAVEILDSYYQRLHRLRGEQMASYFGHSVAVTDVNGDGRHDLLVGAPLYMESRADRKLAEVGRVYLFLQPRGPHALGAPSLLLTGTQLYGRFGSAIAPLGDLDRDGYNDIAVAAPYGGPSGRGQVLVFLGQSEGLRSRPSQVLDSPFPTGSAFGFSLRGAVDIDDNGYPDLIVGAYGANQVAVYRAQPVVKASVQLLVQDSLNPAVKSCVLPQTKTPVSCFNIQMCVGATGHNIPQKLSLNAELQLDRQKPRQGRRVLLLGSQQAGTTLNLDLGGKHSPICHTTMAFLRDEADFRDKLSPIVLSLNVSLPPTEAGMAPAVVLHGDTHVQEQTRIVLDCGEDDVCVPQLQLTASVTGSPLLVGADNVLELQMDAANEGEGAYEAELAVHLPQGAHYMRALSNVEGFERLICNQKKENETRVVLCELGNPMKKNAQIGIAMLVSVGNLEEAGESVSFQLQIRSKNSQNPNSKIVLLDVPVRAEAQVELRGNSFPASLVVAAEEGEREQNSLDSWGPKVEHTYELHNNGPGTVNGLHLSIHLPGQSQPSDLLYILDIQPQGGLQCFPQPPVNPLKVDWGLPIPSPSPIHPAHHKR
T1 sequence (P08514 891-1039 partner limits assumed): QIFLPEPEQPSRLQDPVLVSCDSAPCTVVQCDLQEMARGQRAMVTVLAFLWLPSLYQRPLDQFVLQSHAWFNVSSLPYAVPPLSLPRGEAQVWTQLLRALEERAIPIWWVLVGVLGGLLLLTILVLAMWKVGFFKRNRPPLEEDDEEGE
T1 sequence (P05106 27-788): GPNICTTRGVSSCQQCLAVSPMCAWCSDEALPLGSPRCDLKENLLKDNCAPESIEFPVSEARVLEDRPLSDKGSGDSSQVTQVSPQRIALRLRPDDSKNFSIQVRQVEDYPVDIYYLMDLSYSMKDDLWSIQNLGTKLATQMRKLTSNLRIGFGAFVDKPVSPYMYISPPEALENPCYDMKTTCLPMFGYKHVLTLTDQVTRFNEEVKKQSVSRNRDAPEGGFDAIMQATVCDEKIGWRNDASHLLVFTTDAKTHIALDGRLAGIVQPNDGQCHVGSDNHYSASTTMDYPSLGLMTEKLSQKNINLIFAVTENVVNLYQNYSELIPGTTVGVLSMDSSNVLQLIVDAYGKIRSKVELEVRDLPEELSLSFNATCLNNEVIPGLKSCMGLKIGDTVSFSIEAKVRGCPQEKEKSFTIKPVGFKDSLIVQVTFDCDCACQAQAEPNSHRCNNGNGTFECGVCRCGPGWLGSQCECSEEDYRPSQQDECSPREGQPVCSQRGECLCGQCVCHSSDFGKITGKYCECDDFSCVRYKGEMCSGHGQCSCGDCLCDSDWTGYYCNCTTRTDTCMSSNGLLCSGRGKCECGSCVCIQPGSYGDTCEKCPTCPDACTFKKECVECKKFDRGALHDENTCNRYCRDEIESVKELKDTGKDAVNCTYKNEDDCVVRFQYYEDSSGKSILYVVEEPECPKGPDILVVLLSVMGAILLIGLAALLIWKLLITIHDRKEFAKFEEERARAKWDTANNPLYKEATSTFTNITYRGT

`O=C(O)COc1ccc(C(CNC(=O)c2cc3c(s2)CCNC3)Oc2cccnc2)cc1` (stereo not drawn) [Example 5, [4-[2-[[(4,5,6,7-Tetrahydrothieno[3,2-c]pyridin-2-yl)carbonyl]amino]-1-(pyridin-3-yl)oxyethyl]phenyl]oxyacetic acid trifluoroacetate]: the IC50 in test [1] (Platelet) is 280 nM; in test [2] (setting [3]) it was 10 nM; at human TXA2 synthetase (setting [4]), 160 nM.

With “[4-[[4-(Piperidin-4-yl)-2-oxopiperazin-1-yl]acetyl]-2-(3-pyridyloxymethyl)phenyl]oxyacetic acid trifluoroacetate [Example 7]”, the 50% inhibitory concentration (IC50) is 93 nM in test [1], 23 nM in test [2] (setting [3]) and above 10000 nM on human TXA2 synthetase (setting [4]).

As to `O=C(O)COc1ccc(C(=O)CN2CCN(C3CCNCC3)CC2=O)cc1Cn1ccnc1` [Example 6, [2-(1-Imidazolylmethyl)-4-[[4-(piperidin-4-yl)-2-oxopiperazin-1-yl]acetyl]phenyl]oxyacetic acid trifluoroacetate], the results for the concentration for half-maximal inhibition (IC50) (in test [1] (Platelet); in test [2]; against human TXA2 synthetase) were 71 nM, 12 nM and 570 nM, respectively.

For the compound `O=C(O)COc1ccc(C(=O)CNC(=O)c2cc3c(s2)CCNC3)cc1COc1cccnc1` [Example 2, [2-(Pyridin-3-yl)oxymethyl-4-[[[4,5,6,7-tetrahydrothieno[3,2-c]pyridin-2-yl]carbonylamino]acetyl]phenyl]oxyacetic acid trifluoroacetate], the 50% inhibitory concentration (IC50) was 9300 nM in test [1] (Platelet), 270 nM in test [2] (setting [3]) and above 10000 nM on human TXA2 synthetase (setting [4]).

Turning to `O=C(O)COc1ccc(C(=O)CN2C(=O)CN(C3CCNCC3)CC2=O)cc1Cn1ccnc1` [Example 8, [2-(1-Imidazolylmethyl)-4-[[4-(piperidin-4-yl)-2,6-dioxopiperazin-1-yl]acetyl]phenyl]oxyacetic acid trifluoroacetate], the IC50 in test [1] (Platelet) is 31 nM; in test [2] (purified human platelet GPIIb/IIIa, biotinylated human fibrinogen as ligand) it was 190 nM; against human TXA2 synthetase (human TXA2 synthetase, PGH2 substrate, 25°C, TXB2 determined by enzyme immunoassay) it was 690 nM.

Take `O=C(O)COc1ccc(C(=O)CNC(=O)c2cc3c(s2)CCNC3)cc1Cn1ccnc1` [Example 1, [2-(Imidazol-1-yl)methyl-4-[[[4,5,6,7-tetrahydrothieno[3,2-c]pyridin-2-yl]carbonylamino]acetyl]phenyl]oxyacetic acid trifluoroacetate (TFA)]: the IC50 in test [1] (Platelet) worked out at 4400 nM; in test [2] (setting [3]), 270 nM; on human TXA2 synthetase (setting [4]) it was 360 nM.

With `O=C(O)COc1ccc(C(CNC(=O)c2cc3c(s2)CCNC3)Oc2cccnc2)cc1OCC(=O)O` (stereo not drawn) [Example 3, [[4-[2-[[4,5,6,7-Tetrahydrothieno[3,2-c]pyridin-2-yl]carbonyl]amino-1-[(pyridin-3-yl)oxy]ethyl]-o-phenylene]dioxy]diacetic acid trifluoroacetate], the IC50 came out at 360 nM in test [1] (Platelet), 1.4 nM in test [2] (setting [3]) and 550 nM on human TXA2 synthetase (setting [4]).

`CN(CC(Oc1cccnc1)c1ccc(OCC(=O)O)c(OCC(=O)O)c1)C(=O)c1cc2c(s1)CCNC2` (stereo not drawn) [Example 4, [[4-[2-[[(4,5,6,7-Tetrahydrothieno[3,2-c]pyridin-2-yl)carbonyl]-N-methylamino]-1-(pyridin-3-yl)oxyethyl]-o-phenylene]dioxy]diacetic acid trifluoroacetate]: the IC50 in test [1] (Platelet) was determined as 140 nM; in test [2] (setting [3]), 4.8 nM; on human TXA2 synthetase (setting [4]) it was 870 nM.

The record behind these values is patent publication EP0897920A1, “NOVEL HETEROCYCLIC COMPOUNDS HAVING PLATELET AGGREGATION INHIBITORY EFFECTS” (MEIJI SEIKA KABUSHIKI KAISHA, priority 1996, dated 1997).
